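Method: 48-hour compound exposure of cells in 96-well plates, five concentrations, linear interpolation of endpoints. GI50 = concentration required for 50% inhibition of growth. The concentration for full growth arrest is given as TGI.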
Tests used:
Assay in all cases: growth of human tumour cells (NCI), 48 h
[1] = tested on: SW-620 colon
[2] = tested on: A549 NSCLC
[3] = tested on: MCF7 breast
[4] = tested on: K-562 leukemia
[5] = tested on: LOX IMVI melanoma
[6] = tested on: MDA-MB-231 breast
[7] = tested on: RXF 393 renal
[8] = tested on: HCT-15 colon
[9] = tested on: OVCAR-8 ovarian
[10] = tested on: SK-OV-3 ovarian
[11] = tested on: EKVX NSCLC
[12] = tested on: NCI-H522 lung
[13] = tested on: SK-MEL-5 melanoma
[14] = tested on: PC-3 prostate
[15] = tested on: OVCAR-3 ovarian
[16] = tested on: M14 melanoma
[17] = tested on: SF-295 CNS
[18] = tested on: CAKI-1 renal
[19] = tested on: SR leukemia
[20] = tested on: OVCAR-4 ovarian
[21] = tested on: DU-145 prostate
[22] = tested on: COLO 205 colon
[23] = tested on: U251 CNS
[24] = tested on: SN12C renal
[25] = tested on: HCC-2998 colon
[26] = tested on: BT-549 breast
[27] = tested on: TK-10 renal
[28] = tested on: MALME-3M melanoma
[29] = tested on: NCI-H23 lung
[30] = tested on: SNB-19 CNS
[31] = tested on: SK-MEL-28 melanoma
[32] = tested on: SF-539 CNS
[33] = tested on: KM12 colon
[34] = tested on: SF-268 CNS
[35] = tested on: ACHN renal
[36] = tested on: OVCAR-5 ovarian
[37] = tested on: SNB-75 CNS
[38] = tested on: CCRF-CEM leukemia
[39] = tested on: HCT-116 colon
[40] = tested on: MOLT-4 leukemia
[41] = tested on: MDA-MB-435
[42] = tested on: HT29 colon
[43] = tested on: UO-31 renal
[44] = tested on: HOP-62 NSCLC
[45] = tested on: UACC-257 melanoma
[46] = tested on: T-47D breast
[47] = tested on: NCI-H226 lung
[48] = tested on: HOP-92 NSCLC
[49] = tested on: RPMI-8226 leukemia
[50] = tested on: HL-60(TB) leukemia
[51] = tested on: IGROV1 ovarian
[52] = tested on: UACC-62 melanoma
[53] = tested on: NCI/ADR-RES ovarian
[54] = tested on: NCI-H460 lung
[55] = tested on: 786-0 renal
[56] = tested on: A498 renal
[57] = tested on: SK-MEL-2 melanoma
[58] = tested on: HS 578T breast

## COc1cc(NC2CCCCC2O)c2nc(-c3ccc(Cl)cc3)ccc2c1 (stereo unspecified)
[1]
  GI50: 7.52 µM
  TGI: 46.7 µM
[2]
  GI50: 6.05 µM
  TGI: > 100 µM
[3]
  GI50: 0.358 µM
  TGI: 35.5 µM
[4]
  GI50: 2.82 µM
  TGI: 18.4 µM
[5]
  GI50: 5.95 µM
  TGI: 30.9 µM
[6]
  GI50: 4.43 µM
  TGI: 57.8 µM
[7]
  GI50: 2.78 µM
  TGI: 4.58 µM
[8]
  GI50: 2.94 µM
  TGI: 22.4 µM
[9]
  GI50: 12.2 µM
  TGI: > 100 µM
[10]
  GI50: 33.5 µM
  TGI: > 100 µM
[11]
  GI50: 18.1 µM
  TGI: > 100 µM
[12]
  GI50: 4.83 µM
  TGI: > 100 µM
[13]
  GI50: 10.6 µM
  TGI: 23.1 µM
[14]
  GI50: 4.87 µM
  TGI: > 100 µM
[15]
  GI50: 10.5 µM
  TGI: 32.8 µM
[16]
  GI50: 9.23 µM
  TGI: 33.9 µM
[17]
  GI50: 2.8 µM
  TGI: 12.1 µM
[18]
  GI50: 4.73 µM
  TGI: 63.2 µM
[19]
  GI50: 3.26 µM
  TGI: 32.8 µM
[20]
  GI50: 10.1 µM
  TGI: > 100 µM
[21]
  GI50: 12.7 µM
  TGI: 58 µM
[22]
  GI50: 6.87 µM
  TGI: 20.7 µM
[23]
  GI50: 3.88 µM
  TGI: > 100 µM
[24]
  GI50: 9.96 µM
  TGI: 53.1 µM
[25]
  GI50: 13.4 µM
  TGI: > 100 µM
[26]
  GI50: 40.7 µM
  TGI: > 100 µM
[27]
  GI50: 14.6 µM
  TGI: > 100 µM
[28]
  GI50: 7.45 µM
  TGI: 28 µM
[29]
  GI50: 6.15 µM
  TGI: 61.7 µM
[30]
  GI50: 21.7 µM
  TGI: > 100 µM
[31]
  GI50: 14.4 µM
  TGI: > 100 µM
[32]
  GI50: 10.5 µM
  TGI: 51.4 µM
[33]
  GI50: 3.82 µM
  TGI: 29.2 µM
[34]
  GI50: 9.68 µM
  TGI: > 100 µM
[35]
  GI50: 8.94 µM
  TGI: > 100 µM
[36]
  GI50: 19.1 µM
  TGI: > 100 µM
[37]
  GI50: 5.04 µM
  TGI: 59.1 µM
[38]
  GI50: 4.34 µM
  TGI: 68.5 µM
[39]
  GI50: 12.9 µM
  TGI: > 100 µM
[40]
  GI50: 3 µM
  TGI: 46.6 µM
[41]
  GI50: 4.22 µM
  TGI: 16.6 µM
[42]
  GI50: 4.29 µM
  TGI: 23.8 µM
[43]
  GI50: 6.31 µM
  TGI: 88.5 µM
[44]
  GI50: 5.96 µM
  TGI: 46.7 µM
[45]
  GI50: 12.2 µM
  TGI: > 100 µM
[46]
  GI50: 4.9 µM
  TGI: > 100 µM
[47]
  GI50: 18.6 µM
  TGI: > 100 µM
[48]
  GI50: 18.7 µM
  TGI: 88.3 µM
[49]
  GI50: 3.66 µM
  TGI: 25 µM
[50]
  GI50: 7.57 µM
  TGI: 63 µM
[51]
  GI50: 24.6 µM
  TGI: > 100 µM
[52]
  GI50: 11.1 µM
  TGI: 40.6 µM
[53]
  GI50: 6.1 µM
  TGI: > 100 µM
[54]
  GI50: 3.35 µM
  TGI: 12.3 µM
[55]
  GI50: 5.23 µM
  TGI: 18.6 µM
[56]
  GI50: 6.66 µM
  TGI: 34.8 µM
[57]
  GI50: 12.5 µM
  TGI: 59.3 µM
[58]
  GI50: 2.88 µM
  TGI: 13.2 µM

Source: PubChem BioAssay (NCI)
